The subject of data set [1] is M. tuberculosis H37Rv (ATCC 27294). As to the kind of experiment: Antitubercular activity by microdilution method, M. tuberculosis H37Rv. The class given is cell-based. To be noted: Mycobacterium tuberculosis, 264 h, growth similar to well inoculated with 10 CFU, read after 11 days by visual investigation, three replicates. Background: In broth dilution the organism is exposed to a series of concentrations in liquid medium.

For data set [2], the system named is Hela Henrietta Lacks strain cancer cells. As to the kind of experiment: MTT-based cytotoxicity assay, Hela. To be noted: Homo sapiens. The class given is cell-based. Here is the method: (§1) Briefly, cells (2,500/well) were seeded in 96-well plates and cultured for 24 h, followed by treatment with the target compounds for another 48 h. MTT ([…], 20 μL) was added per well and incubated for another 2.5 h at 37 °C. Then the supernatant fluid was removed and 150 μL/well DMSO was added for 15–20 min. The absorbance (OD) of each well was measured at 570 nm, using a SpectraMAX M5 microplate spectrophotometer (Molecular Devices, Sunnyvale, CA, USA). The IC50 Values are means ± SEM of three independent experiments.

The test system of data set [3] is SKOV-3 ovarian carcinoma cells. As to the kind of experiment: MTT-based cytotoxicity assay, SKOV-3. The data set is classed as cell-based. Conditions: Homo sapiens. Here is the method: as §1
In general terms: Formazan colour is commonly taken as a measure of viable cells.

Data set [4] has as its system A549 lung adenocarcinoma epithelial cells. As to the kind of experiment: MTT-based cytotoxicity assay, A549. The data set is classed as cell-based. Conditions: Homo sapiens. On the procedure:
as §1

Data set [5] has as its system HCT116 colorectal carcinoma cells. As to the kind of experiment: MTT-based cytotoxicity assay, HCT116. The class given is cell-based. Conditions: Homo sapiens. On the procedure:
as §1

For data set [6], the system named is Vero normal African green monkey kidney epithelial cells. As to the kind of experiment: MTT-based cytotoxicity assay, Vero. The data set is classed as cell-based. To be noted: for IC50: Chlorocebus sabaeus. Here is the method:
as §1

In data set [7] the test system is A375 human melanoma cells. As to the kind of experiment: MTT-based cytotoxicity assay, A375. The data set is classed as cell-based. On the procedure: as §1
Data set [8] has as its system HepG2 hepatocellular liver carcinoma cells. As to the kind of experiment: MTT-based cytotoxicity assay, HepG2. To be noted: Homo sapiens. The class given is cell-based. On the procedure: as §1
Data set [9] has as its system six different tumor cell lines. As to the kind of experiment: MTT-based cytotoxicity assay, six cell lines stated together. Here is the method: as §1
Setting [10] is: Hela, MTT, 48 h treatment, means ± SEM of three independent experiments, read-out: IC50.
The mark [11] stands for this setting: SK-OV-3, SKOV-3, MTT, 48 h treatment, means ± SEM of three independent experiments, read-out: IC50.
The mark [12] stands for this setting: A549, MTT, 48 h treatment, means ± SEM of three independent experiments, read-out: IC50.
Where [13] appears, read: HCT-116, HCT116, MTT, 48 h treatment, means ± SEM of three independent experiments, read-out: IC50.
The mark [14] stands for this setting: Vero normal cells, MTT, 48 h treatment, means ± SEM of three independent experiments, read-out: IC50.
Where [15] appears, read: A-375, A375, MTT, 48 h treatment, means ± SEM of three independent experiments, read-out: IC50.
The mark [16] stands for this setting: HepG2, MTT, 48 h treatment, means ± SEM of three independent experiments, read-out: IC50.

18 compounds from paper PMC6268079, “Synthesis and Biological Evaluation of 2-(3-Fluoro-4-nitro phenoxy)-N-phenylacetamide Derivatives as Novel Potential Affordable Antitubercular Agents” (Molecules, 2012) can be followed below.

Molecules are shown by their SMILES. ≈ marks a conversion by molar mass, not a printed value. Like-named read-outs stand apart in the source and are kept apart here.

With `O=C(COc1ccc([N+](=O)[O-])c(F)c1)Nc1ccc(Br)cc1Cl` [Compound 3n, N-(4-Bromo-2-chlorophenyl)-2-(3-fluoro-4-nitrophenoxy)acetamide], the melting point is 173 to 175 °C. This compound also showed an MIC in data set [1] of 32 µg/mL (≈ 79.3 µM).
Take `NNC(=O)c1ccncc1` [Isoniazide]: the lowest concentration to inhibit growth in data set [1] (MIC) was 0.0625 µg/mL (≈ 0.456 µM).
Take `O=C(COc1ccc([N+](=O)[O-])c(F)c1)Nc1ccc(Cl)c(C(F)(F)F)c1` [Compound 3d, N-(4-Chloro-3-(trifluoromethyl)phenyl)-2-(3-fluoro-4-nitrophenoxy)acetamide]: the melting point is 163 to 164 °C. Further, the IC50 in [2] (setting [10]) was determined as 33.2 ± 2.5 µM. The IC50 in data set [3] (setting [11]) is greater than 40 µM. The half-inhibitory concentration (IC50) in data set [4] (setting [12]) was greater than 40 µM. Moreover, in [5] (setting [13]), the IC50 is greater than 40 µM. The IC50 in [6] (setting [14]) is greater than 40 µM. This compound also registered an MIC in data set [1] of 16 µg/mL (≈ 40.7 µM). Also, the 50% inhibitory concentration (IC50) in [7] (setting [15]) was greater than 40 µM. The IC50 in data set [8] (setting [16]) is greater than 40 µM.
For `O=C(COc1ccc([N+](=O)[O-])c(F)c1)Nc1ccc(Br)cc1F` [Compound 3c, N-(4-Bromo-2-fluorophenyl)-2-(3-fluoro-4-nitrophenoxy)acetamide], the melting point fell in the range of 160 to 162 °C. In [1], this compound came in with an MIC of 32 µg/mL (≈ 82.7 µM).
Regarding `O=C(COc1ccc([N+](=O)[O-])c(F)c1)Nc1cccc(Cl)c1` [Compound 3a, N-(3-Chlorophenyl)-2-(3-fluoro-4-nitrophenoxy)acetamide], the melting point was 150 to 151 °C. The IC50 in data set [2] (setting [10]) is greater than 40 µM. In addition, the IC50 in data set [3] (setting [11]) was greater than 40 µM. The IC50 in [4] (setting [12]) was greater than 40 µM. Further, the IC50 in [5] (setting [13]) is greater than 40 µM. Also, the IC50 in data set [6] (setting [14]) is greater than 40 µM. The minimum inhibitory concentration (MIC) in [1] was found to be 16 µg/mL (≈ 49.3 µM). Further, the IC50 in data set [7] (setting [15]) was greater than 40 µM. The IC50 in data set [8] (setting [16]) is greater than 40 µM.
Compound `O=C(COc1ccc([N+](=O)[O-])c(F)c1)Nc1cccc([N+](=O)[O-])c1` [Compound 3e, 2-(3-Fluoro-4-nitrophenoxy)-N-(3-nitrophenyl)acetamide] had a melting point of 199 to 201 °C. The compound also returned an MIC in [1] of 64 µg/mL (≈ 191 µM).
`COc1ccc(NC(=O)COc2ccc([N+](=O)[O-])c(F)c2)c(OC)c1` [Compound 3f, N-(2,4-Dimethoxyphenyl)-2-(3-fluoro-4-nitrophenoxy)acetamide]: the melting point was in the range of 174 to 175 °C. Further, in data set [1], the MIC amounted to 64 µg/mL (≈ 183 µM).
Regarding `COC(=O)COc1ccc(NC(=O)COc2ccc(C)cc2C)cc1` [I, methyl 2-(4-(2-(2,4-dimethylphenoxy)acetamido)phenoxy)acetate], in data set [1], 4 µg/mL (≈ 11.6 µM) was the least that counted as inhibitory (MIC).
The compound `O=C(COc1ccc([N+](=O)[O-])c(F)c1)Nc1ccccc1C(F)(F)F` [Compound 3k, 2-(3-Fluoro-4-nitrophenoxy)-N-(2-(trifluoromethyl)phenyl)acetamide] registered a melting point of 146 to 147 °C. The compound also displayed an MIC in data set [1] of 64 µg/mL (≈ 179 µM).
`O=C(COc1ccc([N+](=O)[O-])c(F)c1)Nc1cc(C(F)(F)F)cc(C(F)(F)F)c1` [Compound 3g, N-(3,5-bis(Trifluoromethyl)phenyl)-2-(3-fluoro-4-nitrophenoxy)acetamide] displayed a melting point of 168 to 169 °C. Further, the IC50 in data set [2] (setting [10]) amounted to 20 ± 1.1 µM. Further, the IC50 in [3] (setting [11]) worked out at 12.2 ± 1.3 µM. Besides, in data set [4] (setting [12]), the IC50 worked out at 38.2 ± 1.5 µM. Also, in data set [5] (setting [13]), the IC50 came to 33.8 ± 2 µM. Also, the IC50 in [6] (setting [14]) was greater than 40 µM. The compound further gave an MIC in data set [1] of 8 µg/mL (≈ 18.8 µM). Besides, in [7] (setting [15]), the IC50 was found to be 22.6 ± 0.9 µM. The IC50 in data set [8] (setting [16]) was found to be 21.6 ± 1.1 µM.
The compound `O=C(COc1ccc([N+](=O)[O-])c(F)c1)Nc1ccc(Cl)c(Cl)c1` [Compound 3b, N-(3,4-Dichlorophenyl)-2-(3-fluoro-4-nitrophenoxy)acetamide] showed a melting point of 175 to 176 °C. The same compound showed an MIC in [1] of 32 µg/mL (≈ 89.1 µM).
`O=C(COc1ccc([N+](=O)[O-])c(F)c1)Nc1ccc(Br)cc1` [Compound 3i, N-(4-Bromophenyl)-2-(3-fluoro-4-nitrophenoxy)acetamide]: the melting point lay in the range of 166 to 167 °C. The same compound had an MIC in [1] of 32 µg/mL (≈ 86.7 µM).
In the same order, the values of `N#Cc1ccccc1NC(=O)COc1ccc([N+](=O)[O-])c(F)c1` [Compound 3j, N-(2-Cyanophenyl)-2-(3-fluoro-4-nitrophenoxy)acetamide] are 172 to 174 °C and 64 µg/mL (≈ 203 µM).
`O=C(COc1ccc([N+](=O)[O-])c(F)c1)Nc1ccc(F)c(Cl)c1` [Compound 3h, N-(3-Chloro-4-fluorophenyl)-2-(3-fluoro-4-nitrophenoxy)acetamide] had a melting point of 166 to 167 °C. Besides, the IC50 in [2] (setting [10]) was greater than 40 µM. For the same compound, the IC50 in [3] (setting [11]) is greater than 40 µM. For the same compound, in [4] (setting [12]), the IC50 is greater than 40 µM. Besides, in data set [5] (setting [13]), the IC50 was greater than 40 µM. For the same compound, the IC50 in data set [6] (setting [14]) was greater than 40 µM. The same compound came in with a minimum inhibitory concentration (MIC) in [1] of 16 µg/mL (≈ 46.7 µM). Further, the IC50 in data set [7] (setting [15]) is greater than 40 µM. Also, in data set [8] (setting [16]), the IC50 is greater than 40 µM.
For the compound `Cc1ccc([N+](=O)[O-])cc1NC(=O)COc1ccc([N+](=O)[O-])c(F)c1` [Compound 3p, 2-(3-Fluoro-4-nitrophenoxy)-N-(2-methyl-5-nitrophenyl)acetamide], the melting point is 211 to 213 °C. In data set [1], this compound gave an MIC of 64 µg/mL (≈ 183 µM).
Consider `O=C(COc1ccc([N+](=O)[O-])c(F)c1)Nc1ccc(C(F)(F)F)cc1` [Compound 3o, 2-(3-Fluoro-4-nitrophenoxy)-N-(4-(trifluoromethyl)phenyl)acetamide], for which the melting point fell in the range of 173 to 175 °C. Also, the IC50 in data set [2] (setting [10]) amounted to 33.8 ± 1.7 µM. Besides, in data set [3] (setting [11]), the IC50 stood at 28.6 ± 2.3 µM. In [4] (setting [12]), the IC50 was greater than 40 µM. In data set [5] (setting [13]), the IC50 was greater than 40 µM. The IC50 in data set [6] (setting [14]) is greater than 40 µM. Besides, in data set [1], the MIC stood at 16 µg/mL (≈ 44.7 µM). Besides, the half-inhibitory concentration (IC50) in [7] (setting [15]) stood at 28.3 ± 1.2 µM. In addition, the IC50 in [8] (setting [16]) is greater than 40 µM.
As to `O=C(COc1ccc([N+](=O)[O-])c(F)c1)Nc1ccc(OC(F)(F)F)cc1` [Compound 3l, 2-(3-Fluoro-4-nitrophenoxy)-N-(4-(trifluoromethoxy)phenyl)acetamide], the melting point fell in the range of 146 to 148 °C. This compound also showed an MIC in data set [1] of 32 µg/mL (≈ 85.5 µM).
Turning to `O=C(COc1ccc([N+](=O)[O-])c(F)c1)Nc1ccccc1[N+](=O)[O-]` [Compound 3m, 2-(3-Fluoro-4-nitrophenoxy)-N-(2-nitrophenyl)acetamide], the melting point lay within 201 to 202 °C. Also, the IC50 in [2] (HeLa, 48 h) is greater than 40 µM. The same compound came in with an IC50 in data set [3] (SK-OV-3, 48 h) greater than 40 µM. The compound further displayed an IC50 in data set [4] (A549, 48 h) greater than 40 µM. The same compound showed an IC50 in data set [5] (HCT-116, 48 h) greater than 40 µM. Besides, in data set [6] (Vero, 48 h), the IC50 was greater than 40 µM. Also, in data set [6] (MTT assay, result in words), the “safety profile in a vero cell line” value was “good safety profile”. The same compound displayed an MIC in data set [1] of 4 µg/mL (≈ 11.9 µM). For the same compound, in [9] (one bound stated for all six cell lines, read-out: IC50 against the tested six different cell lines), the IC50 is greater than 40 µM. In addition, in [9] (result in words), the “inhibitory effects against six different tumor cell lines” value is reported as “no inhibitory effects” and the “safety profile / toxicity in six different cell lines” value was “good safety profile”. The IC50 in data set [7] (A-375, 48 h) was greater than 40 µM. This compound registered an IC50 in data set [8] (HepG2, 48 h) greater than 40 µM.

A word on the MIC: it is the smallest concentration in the dilution series that meets the test's criterion for growth inhibition. The term melting point denotes the temperature, or range, at which the solid turns liquid. One may read the IC50 as the concentration at which inhibition is half-maximal.
